{"source": "patent US8263095B2", "about": "“Methods of use for peptides having activities of insulin like growth factor-1” (Caregen Co., Ltd., priority 2006, dated 2012)", "tested_on": "receptors on surface of 3T3 fibroblasts", "assay": "Binding of fluorescence-labeled peptide to receptors on fibroblasts", "conditions": "1 mg/ml, 1 hr incubation, fluorescence and optical microscopy", "description": "3T3 fibroblasts were cultured in 250 ml-flasks containing EMEM (Eagle's minimal essential media, Gibco, U.S.A.) supplemented with […] FBS (fetal bovine serum). After 48-hr culture, the supernatant of the medium was discarded and the remainder was washed once with PBS (phosphate buffered saline). FITC-b-Ala-CDLRRLEMYC prepared in Preparation Example 4 was dissolved in DMSO and PBS to a concentration of 1 mg/ml and incubated for 1 hr with cells cultured. After removing medium, cells were completely washed and their surface was observed under fluorescence and optical microscopes.", "note": "Bridge positions count the residues as written; N and C are the ends. Ends that are not written are not given here. * marks the point of attachment. FITC = O=C1OC2(c3ccc(O)cc3Oc3cc(O)ccc32)c2ccc(NC(=S)*)cc21; βAla = NCCC(=O)O", "data": [{"substance": "FITC-b-Ala-Cys-Asp-Leu-Arg-Arg-Leu-Glu-Met-Tyr-Cys ({FITC-βAla}-CDLRRLEMYC; disulfide 1-10) [FITC-labeled peptide]", "values": [{"measurement": "binding of the FITC-labeled peptide to receptors on cell (FIG. 12)", "result": "binds to receptors on surface of fibroblasts"}]}]}
